“Also recorded” adds a separate entry of the source.
Key:
[1] = system: cultured neurons; test: Excitatory Postsynaptic Currents (EPSCs), Patch Clamp recording in cultured neurons; assay type: cell-based; conditions: for average EPSCs: control 21±5 pA
Method: (§1) FIG. 12 depicts, in accordance with embodiments herein, the impact of PACAP's administration on synapses. […] Cultured neurons were treated with either nothing (top left), Aβ42 (top middle) or PACAP with Aβ42 (top right). Bottom panel: PACAP enhances synaptic transmissions (EPSCs frequency and amplitude) in cultured neuronal network.
(§2) Furthermore, PACAP increased the frequency and amplitude of Excitatory Postsynaptic Currents (EPSCs) in cultured neurons without Aβ in the media (FIG. 12 bottom panel). The average EPSCs was 21±5 pA in control (n=7 cells), which was increased to 31±3 pA (n=9 cells) if the cultured neurons were pretreated with PACAP (20 nM) for 72 hours before Patch Clamp recording (p<0.05, one way ANOVA with posthoc Tukey test). PACAP6-38, the truncated non-active version mixed with PACAP38 blocked the effect of PACAP, resulting in an average EPSCs of 24±3 pA (n=6).

[2] = system: phosphorylated Tau protein at the site of pThr231; test: Aβ42-induced Tau phosphorylation at Thr231, Western blot in cultured primary neurons; assay type: cell-based
From the text: The cells were harvested and homogenized for Western blot assay. The inventors used an antibody specific to phosphorylated Tau protein at the site of pThr231 (Pierce-antibody OPA1-03156).

[3] = system: BACE1; test: BACE1 expression after PACAP treatment; assay type: cell-based, APP-transgenic mice
From the text: PACAP38 is the full length active peptide.
(§3) As the amyloid accumulation in AD was contributed by amyloid precursor protein (APP) cleaved by overactive β-secretase (BACE1) and subsequently by γ-secretase, the desirable therapeutic goal is to inhibit BACE1 and/or γ-secretase, while enhancing α-secretase. The inventors used APP-transgenic mice pups to establish cortical neuronal culture with the method that the inventors previously published (Han et al 2014, Neurobiology of Aging). At 14 days, the inventors added PACAP and treated for 72 hours. Then the cells were harvest for BACE1, ADAMS, or other ELISA-based Assays.

[4] = system: hTau transgenic mice; test: Morris Water Maze in hTau transgenic mice after intranasal PACAP; assay type: in vivo; conditions: hTau mice at 10 months, intranasal PACAP 0.1 μg/μl, 3 μl per nostril, 3 times a week, 8 weeks
Method: The inventors gave intranasal PACAP treatment for a group of hTau transgenic mice and their WT littermates. Starting from the age of 6 months, these groups of mice were given bilateral nostril injection of PACAP (0.1 μg/μl, 3 μl per nostril) 3 times a week for a continuous 8 weeks. Human Tau mice are appropriate model to test Tau phosphorylation and its pathological consequence. In this strain (B6.Cg-Mapttml(EGFP)Klt Tg(MAPT)8cPdav/J, Jackson lab), the intrinsic mice tau was disrupted by inserting eGFP sequence to the first exon of mice tau, but all 6 isoforms of human Tau (both 3R and 4R) were knocked in. The hTau mice show age dependent accumulation of hyperphosphorylated and aggregated tau in cortex and hippocampus, neuronal loss, and cognitive decline. The inventors tested the mice in Morris Water Maze, which is a behavior test approach to examine the spatial recognition and memory function of mice. […] Taken together, PACAP nasal injection decreases AD pathology and improves cognitive performance in two animal models of AD.

[5] = system: APP transgenic mice; test: Thioflavin-S dense core amyloid plaques in hippocampal region after intranasal PACAP; assay type: in vivo
Method: FIG. 13 depicts, in accordance with embodiments herein, the impact of PACAP's administration on plaques in APP transgenic mice in that PACAP reduces dense core amyloid plaque size. A: a typical amyloid plaque in the hippocampal region of an untreated APP transgenic mouse at 9 month age. Bar=20 μM. B: an amyloid plaque in the hippocampal region from an APP transgenic mouse (9 month) after intranasal PACAP treatment. Bar=20 μM.
(§4) The inventors gave intranasal PACAP treatment to a group of APP transgenic mice and their wild-type littermates. Starting from the age of 6 months, these groups of mice were given bilateral nostril injection of PACAP (0.1 μg/μl, 3 μl per nostril) three times per week for eight continuous weeks. The injection procedure was described by Nonako et al 2012. At the age of 9 months, the inventors sacrificed the mice and examined amyloid plaques in the hippocampal regions using thioflavin-S staining and photographed under fluorescent microscope. These thioflavin-S positive dense core plaques are associated with deleterious effects whereas thioflavin-S negative diffusive amyloid plaques are non-detrimental and often associated with cognitive normal elderly individuals (Serrano-Pozo et al., 2011).

[6] = system: phosphorylated Tau protein at the site of 422; test: Aβ42-induced Tau phosphorylation at site 422, In-Cell Western in cultured primary neurons; assay type: cell-based
Method: The cells were fixed in 96 wells plate for In-Cell Western assay. The inventors used an antibody specific to phosphorylated Tau protein at the site of 422 and Tau5 antibody for total Tau quantification. pTau/total Tau ratio was calculated and compared. […] Okadaic acid (OA) is a potent phosphatase inhibitor to test maximal pTau capacity.
Because Tau hyperphosphorylation is contingent upon Aβ, this in vitro model best epitomizes AD pathogenesis and can differentiate AD from other tauopathy (FTLD, PDD, etc). […] Meanwhile, PACAP38 (lane 4) reduced Aβ-induced Tau phosphorylation and the phosphorylated Tau to actin ratio was 0.5. […] In addition to the phosphorylation site at Thr231 of Tau, the inventors tested pTau 422 using an in-cell Western approach on cultured cells (FIG. 11). PACAP (50 nM) reduces pTau422 by 40%.

[7] = system: APP transgenic mice and wild-type littermates; test: Novel Objects Recognition (NOR) test after intranasal PACAP; assay type: in vivo; conditions: PACAP-treated WT mice
Method: as §4
Next, the inventors performed the Novel Objects Recognition (NOR) test. Briefly, the mice were acclimatized to a square chamber, then two identical objects were placed in the chamber on the second day. On the third day, one of the objects was replaced with a novel object. It is a natural behavior to take more time to explore the new object. The discriminating capacity on the new object vs the old object was calculated as discrimination index (DI) as follows:
In APP mice, DI change was −110% (n=4), indicating deterioration on cognitive function from 6-9 month (without PACAP treatment). […]

[8] = system: cultured neurons; test: Neurite integrity / Aβ-induced synaptic degeneration in cultured neurons; assay type: cell-based; conditions: PACAP with Aβ42
Method: as §1, §2

[9] = system: BACE1; test: BACE1 FRET activity assay (Michaelis-Menten) on PACAP-treated cortical neuronal culture; assay type: cell-based, APP-transgenic mice; conditions: PACAP treatment
Method: FIG. 7 depicts, in accordance with embodiments herein, that PACAP inhibits BACE1 activity. Left panel: BACE1 activity kinetic was measured and fitted with Michaelis-Menten Model. […] Right panel: steady state endpoint fluorescent units (RFU). Note PACAP reduces the end product by BACE1.
as §3
The inventors measured BACE1 activity using a BACE1 FRET assay kit (Panvera, Life technologies) with a customized protocol. The artificial substrate of BACE1 is a short peptide with a rhodamine-derived fluorescent donor coupled to a quenching acceptor (Rh-[…]-Quencher). Upon cleavage by BACE1, the rhodamine donor is released from quencher and emitted fluorescence detected under a wavelength of Ex/Em=545/585 nm. […]

[10] = system: primary cortical neuron cultures; test: Aβ-induced toxicity, MTT cell survival in primary cortical neuron cultures; assay type: cell-based, mice; conditions: for cell survival (MTT, control cells normalized to 100%): overnight
Method: The inventors applied three different doses of Aβ overnight to primary cortical neuron cultures obtained from neonatal mice and examined cell survival using the MTT chemiluminescent assay (FIG. 6). The MTT value of control cells (no Aβ added) was normalized to 100% and all other MTT values of cells incubated with Aβ were presented as a percentage of survival.

[11] = system: APP transgenic mice; test: Morris Water Maze (MWM) in APP mice after intranasal PACAP; assay type: in vivo; conditions: APP mice at 10 months
Method: (A) APP mice were either treated with intranasal PACAP (n=4) or treated with intranasal saline (n=4). (B) WT mice were either treated with intranasal PACAP (n=3) or saline (n=3).
as §4
In APP mice, DI change was −110% (n=4), indicating deterioration on cognitive function from 6-9 month (without PACAP treatment). PACAP treatment slows the declining rate as the DI change was −40% in PACAP-treated APP mice group (n=4). Furthermore, the inventors tested the mice in the Morris Water Maze (MWM), which is a behavior test used to examine the spatial recognition and memory function of mice. […]

## PACAP6-38 [reference compound]
[1]; PAC1 receptor antagonist with PACAP
  effect on PACAP enhancement of synaptic transmissions: blocks the enhancement
[1]; PACAP6-38 mixed with PACAP38
  average EPSCs: 24±3 pA
[2]; PACAP6-38 (2 μM) with PACAP38 (50 nM) and Aβ42, lane 3
  effect on PACAP reduction of pTau231: offsetting the effect of PACAP
[3]; PACAP6-38 with PACAP
  effect of PAC1 receptor blocker on BACE1 reduction by PACAP: antagonized the BACE1 reduction effect of PACAP

## Pituitary Adenylate Cyclase Activating Polypeptide [PACAP]
[4]
  MWM performance: prevented the deterioration
[5]; intranasal PACAP 0.1 μg/μl, 3 μl per nostril, three times per week, eight weeks from 6 months, examined at 9 months
  dense core amyloid plaque size (average core diameter): smaller size; also recorded: significantly reduced
[5]; intranasal PACAP, APP transgenic mice, 9 month
  number of amyloid plaques: did not significant change
[6]; PACAP 50 nM, Aβ42 (0.25 μM) treated cells
  reduction of pTau422: 40%
[6]; PACAP by itself, without Aβ42
  pTau/total Tau ratio: did not change Tau phosphorylation
[6]; low dose PACAP 10 nM, Aβ42 treated cells
  reduction of pTau422: marginal effect
[1]; cultured neurons without Aβ in the media
  frequency and amplitude of EPSCs: increased; also recorded: enhances
[1]; pretreated with PACAP (20 nM) 72 hours, no Aβ
  average EPSCs: 31±3 pA
[7]
  discrimination index (DI) change: positively changed
[8]
  neurite integrity / Aβ-induced synaptic degeneration: protects Aβ-induced synaptic degeneration; also recorded: protects Aβ induced synaptic degeneration; also recorded: protects neurite integrity
[9]
  steady state endpoint fluorescent units (RFU), end product by BACE1: reduces
[2]; PACAP38 (50 nM) added 24 hours after Aβ42 (0.5 μM), 48 hours, lane 4, non-treated 0.25
  phosphorylated Tau (pTau231) to actin ratio: 0.5
[3]; PACAP38 full length peptide
  BACE1 expression: reduces BACE1 expression
[10]; Aβ42 1 μM, cultured mouse cortical neurons
  PACAP concentration that effectively protects against Aβ42 toxicity: ≥ 50 nM
[10]; PACAP 50 nM added at the same time as 1 μM Aβ
  cell survival (MTT, control cells normalized to 100%): 79±5%
[10]; PACAP 100 nM added at the same time as 1 μM Aβ
  cell survival (MTT, control cells normalized to 100%): 87±4%
[11]
  MWM performance: prevents the deterioration

Reference: patent publication US20200282019A1, “METHODS OF TREATING NEURODEGENERATIVE DISEASES” (priority 2017, published 2020)
